Source: publication PMC11435135, “Diagnosis of Prostate Cancer with a Neurotensin–Bombesin Radioligand Combination—First Preclinical Results” (Pharmaceutics, 2024)

Key:
GRPR = conditions: cited from earlier work
From the text: (§1) We decided to investigate the potential advantages–shortcomings of the “radioligand cocktail” approach in human prostate cancer, prompted by the reported co-expression of NTS1R and GRPR in this frequently occurring cancer type. For such a purpose, we opted for the PC-3 cell line to conduct our cell uptake studies as well as to induce subcutaneous xenografts in mice, as it co-expresses the two targets of interest. Based on our previous work on NTS1R- and GRPR-directed radioligands, we selected a cocktail consisting of [^99mTc]Tc-DT11 (NTS1R-specific) [[47] ...

PC-3 xenografts = tested on: PC-3 xenografts; parameters: species or system mice; conditions: mouse, in vivo
Method: The biodistribution of [^99mTc]Tc-DT11 was studied in male severe combined immunodeficiency (SCID) mice (11 mice 6-weeks of age on arrival date, 18 ± 4 g, NCSR “Demokritos” Animal House, Athens, Greece) bearing PC-3 xenografts in their flanks. Tumor induction was achieved by subcutaneous injection of a PC-3 cell suspension (12 × 10^6 cells in 150 µL PBS) in their flanks. The animals were kept under aseptic conditions and, 3 weeks later, developed palpable masses at the inoculation sites (150 ± 50 mg); biodistribution was then conducted. On the day of the experiment, animals were divided into three groups: controls (n = 4), Entresto® (n = 4) and block (n = 3). All mice were injected in the tail vein with a bolus of [^99mTc]Tc-DT11 (100 µL, 185 kBq, 5 pmol total peptide in vehicle). […] Blood was collected from the heart, and tumors, organs and tissue samples of interest were excised and weighted, and their radioactivity content was measured together with the proper standards of the injected activity in the gamma counter. The percent of injected activity per gram (%IA/g) was calculated, and the results were provided as mean %IA/g values ± sd for each group. […]

PC-3 cells = test: Uptake/internalization of [99mTc]Tc-DT11 in PC-3 cells; assay type: cell-based, human; conditions: radioligand alone, 1 h at 37 °C
Method: The day preceding the experiment, PC-3 cells were transferred in 6-well plates (1 × 10^6 cells in 3 mL culture medium per well), and the plates were positioned in the incubator. On the day of the experiment, the plates were placed on ice and the supernatant was aspirated and discarded. The cells were rinsed with 2 × 2 mL ice-cold internalization medium (IM, RPMI-1640 with 1% FBS) and the plates were placed on the bench. Warm IM (1.2 mL at 37 °C) was added to the wells, followed by either warm IM (150 µL—3 upper wells, total series) or excess NT in IM (150 µL to a final concentration of 1 µM—3 lower wells, non-specific series). In a last step, [^99mTc]Tc-DT11 in phosphate-buffered saline with 0.5% bovine serum albumin (PBS-BSA) was added to all plates (250 fmol peptide, ≈100,000 cpm). Cells were incubated for 1 h at 37 °C in an Incubator-Orbital Shaker unit (MPM Instr. SrI, Bernareggio, Milan, Italy). Incubation was interrupted by placing the plates on ice and collecting the supernatants in separate plastic tubes. The cells were rinsed with ice-cold PBS-BSA (1 mL) and the liquid was collected and combined with the respective supernatant tubes. The plates were placed on the bench and incubated 2 × 5 min with acid buffer (2 × 600 µL, 50 mM Gly in 0.1 M NaCl, pH 2.8). Supernatants were again collected and combined in individual tubes (membrane-bound fractions). Cells were rinsed with ice-cold PBS-BSA (1 mL), which was aspirated and discarded. Finally, the cells were treated with 2 × 600 µL 1 M NaOH, detached, collected and combined in separate tubes (internalized fractions). The radioactivity of all tubes was measured in the gamma counter. The percentage of specific membrane-bound and internalized fractions (their sum corresponding to specific cell-uptake) vs. total radioactivity added per well were calculated by subtracting non-specific values from totals. Results were expressed as average values ± standard deviation (sd) from 3 independent experiments performed in triplicate.

NTS1R = conditions: cited from earlier work
From the text: as §1

[1] = NTS1R-specific, % of added activity, mean ± sd, 3 experiments in triplicate

Row | Substance | affinity to the respective receptor (GRPR) | tumor-to-kidney ratio (PC-3 xenografts) | internalized fraction as share of cell-associated activity (PC-3 cells) | membrane-bound fraction as share of cell-associated activity (PC-3 cells) | internalized fraction (PC-3 cells; [1]) [%] | membrane-bound fraction (PC-3 cells; [1]) [%] | affinity to the respective receptor (NTS1R)
1 | N4-PEG2-DPhe-Gln-Trp-Ala-Val-Gly-His-Leu-NHEt [[^99mTc]Tc-DB7, Tc-99m labeled DB7, GRPR-specific bombesin-based radioligand (GRPR antagonist)] | sub-nanomolar | – | – | – | – | – | –
2 | N4-Lys(MPBA-PEG4)-Arg-Arg-Pro-Tyr-Ile-Leu-OH [[^99mTc]Tc-DT11, Tc-99m labeled DT11, NTS1R-specific neurotensin-based radioligand] | – | ≈ 1.5 | ≈ 87% | ≈ 13% | 1.22 ± 0.26 | 0.18 ± 0.12 | sub-nanomolar
